In patent publication US20080261994A1, “CYCLOPROPANE COMPOUNDS AND PHARMACEUTICAL USE THEREOF” (Japan Tobacco Inc., priority 2003, published 2008):
pIC50: −log10 of the molar value. Like-named read-outs stand apart in the source and are kept apart here.

Legend:
Type in all cases: biochemical
aggrecanase-1 = target: T1, aggrecanase-1 (Homo sapiens, UniProt O75173); experiment: Aggrecanase-1 inhibitory action (Particle Assay, GAG release from aggrecan-containing polyacrylamide particles)
T1 sequence (O75173 213-837): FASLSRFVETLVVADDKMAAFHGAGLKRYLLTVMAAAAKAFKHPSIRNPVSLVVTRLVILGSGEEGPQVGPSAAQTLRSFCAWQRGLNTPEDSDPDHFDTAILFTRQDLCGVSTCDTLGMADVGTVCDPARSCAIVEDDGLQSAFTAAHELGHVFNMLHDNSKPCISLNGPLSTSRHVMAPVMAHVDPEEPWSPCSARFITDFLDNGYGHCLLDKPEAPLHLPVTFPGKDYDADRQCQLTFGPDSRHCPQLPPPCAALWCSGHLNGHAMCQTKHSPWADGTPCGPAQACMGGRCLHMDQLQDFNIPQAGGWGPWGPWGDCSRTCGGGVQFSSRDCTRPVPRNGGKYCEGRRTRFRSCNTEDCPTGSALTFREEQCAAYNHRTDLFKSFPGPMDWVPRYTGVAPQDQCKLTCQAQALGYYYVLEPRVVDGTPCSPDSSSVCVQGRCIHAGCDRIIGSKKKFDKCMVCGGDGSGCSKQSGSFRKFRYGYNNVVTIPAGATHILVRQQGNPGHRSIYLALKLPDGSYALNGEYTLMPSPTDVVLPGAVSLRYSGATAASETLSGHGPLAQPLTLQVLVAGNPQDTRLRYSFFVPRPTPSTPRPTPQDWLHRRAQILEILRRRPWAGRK
Procedure, shortened: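 Readout was dimethylmethylene blue absorbance (595 nm) of glycosaminoglycan liberated into supernatant, calibrated with whale chondroitin sulfate. Substrate was aggrecan in polyacrylamide particles, digested 15 h at 37° C in Tris-HCl; TC50 (μM) derived from inhibition relative to no-enzyme and no-inhibitor controls.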

MMP-1 = target: T2, MMP-1 (Homo sapiens, UniProt P03956); experiment: MMP-1 inhibitory action (Type I collagen Activity Measurement kit, FITC-labeled collagen type I)
T2 sequence (P03956 100-469): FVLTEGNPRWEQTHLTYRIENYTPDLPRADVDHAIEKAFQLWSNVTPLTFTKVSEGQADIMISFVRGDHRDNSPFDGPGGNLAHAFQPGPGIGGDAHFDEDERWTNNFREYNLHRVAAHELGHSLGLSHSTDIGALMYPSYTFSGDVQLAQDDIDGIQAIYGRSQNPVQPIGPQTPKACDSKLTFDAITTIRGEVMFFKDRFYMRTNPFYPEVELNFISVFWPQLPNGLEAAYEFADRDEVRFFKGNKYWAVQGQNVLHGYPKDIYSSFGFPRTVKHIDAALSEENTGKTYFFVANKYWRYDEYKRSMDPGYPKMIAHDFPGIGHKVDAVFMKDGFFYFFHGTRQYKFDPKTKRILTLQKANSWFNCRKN

Recombinant Human MMP-13 = target: T3, Recombinant Human MMP-13 (Homo sapiens, UniProt P45452); experiment: MMP-13 inhibitory activity (MMP-13 specific fluorescent substrate with quencher)
T3 construct: purchased R&D systems 511-MM
Procedure, shortened: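 IC50 (μM) derived from % inhibition, normalised to wells without enzyme and without inhibitor, fluorescence read at 325/405 nm. Enzyme and compound preceded addition of the quenched 7-MCA…DPA substrate; Tris-HCl buffer, 25 °C for 1 h, acetic-acid stop.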

[1] = aggrecanase-1 inhibitory action, read-out: IC50 AG1 (Experimental Example 1)
[2] = MMP-1 inhibitory action, FITC-labeled collagen type I, 37° C. for 3 hr, read-out: IC50 MMP1 (Experimental Example 2)
[3] = Recombinant Human MMP-13, fluorescent substrate, 25° C. for 1 h, read-out: IC50 MMP13 (Experimental Example 3)
[4] = Experimental Example 1, read-out: IC50 AG1
[5] = Experimental Example 2, read-out: IC50 MMP1
[6] = Experimental Example 3, read-out: IC50 MMP13

Compound	pIC50 (aggrecanase-1; [1])	pIC50 (MMP-1; [2])	pIC50 (Recombinant Human MMP-13; [3])	pIC50 (aggrecanase-1; [4])	pIC50 (MMP-1; [5])	pIC50 (Recombinant Human MMP-13; [6])
COCCN1CCN(S(=O)(=O)N[C@@]2(C(=O)O)C(C)[C@@H]2c2ccccc2)CC1 (stereo partly drawn) [Example 2-534]				≤ 6.00	≤ 6.00	≤ 6.00
COc1ccc2[nH]c(-c3ccc(S(=O)(=O)N[C@@]4(C(=O)O)C(C)[C@@H]4c4ccccc4)s3)nc2c1 (stereo partly drawn) [Example 2-607]				≤ 6.00	≤ 6.00	> 7.00
C[C@]1(c2ccccc2)C[C@@]1(NS(=O)(=O)c1ccc(/C=C/C(F)(F)F)s1)C(=O)O [Example 2-562]				≤ 6.00	≤ 6.00	≤ 6.00
CC(=O)c1ccc(-c2ccc(S(=O)(=O)N[C@@]3(C(=O)O)C[C@]3(C)c3ccccc3)s2)cc1 [Example 2-573]				> 6.00	≤ 6.00	> 7.00
CC1CCC(N2CCN(S(=O)(=O)N[C@@]3(C(=O)O)C(C)[C@@H]3c3ccccc3)CC2)CC1 (stereo partly drawn) [Example 2-442]				≤ 6.00	≤ 5.00	≤ 6.00
CC1[C@H](c2ccccc2)[C@]1(NS(=O)(=O)N1CC=C(c2ccc(Cl)cc2)CC1)C(=O)O (stereo partly drawn) [Example 2-441]				> 7.00	≤ 6.00	> 7.00
O=C(NO)C1(NS(=O)(=O)c2ccc(OCc3ccc(Cl)cc3Cl)cc2)CC1c1ccccc1 (stereo not drawn) [Example 1-2, 1-[4-(2,4-Dichlorobenzyloxy)benzenesulfonylamino]-2-phenylcyclopropanecarboxylic acid hydroxyamide]	> 7.00	≤ 6.00	> 7.00			
CC1[C@H](c2ccccc2)[C@]1(NS(=O)(=O)c1ccc(-n2cc(CO)cn2)s1)C(=O)O (stereo partly drawn) [Example 2-561]				> 7.00	> 7.00	> 7.00

More lines, now with the values ahead:

pIC50 (aggrecanase-1; [1])	pIC50 (MMP-1; [2])	pIC50 (Recombinant Human MMP-13; [3])	pIC50 (aggrecanase-1; [4])	pIC50 (MMP-1; [5])	pIC50 (Recombinant Human MMP-13; [6])	Compound
> 7.00	≤ 6.00	> 6.00				C[C@]1(c2ccccc2)C[C@@]1(NS(=O)(=O)c1ccc(-c2ccc(Cl)cn2)s1)C(=O)O [Example 2-131]
			> 6.00	> 6.00	> 7.00	O=C(OCC1(c2ccccc2)CC1(NS(=O)(=O)c1ccc(-c2cc(C(F)(F)F)on2)s1)C(=O)O)N1CCCCC1 (stereo not drawn) [Example 2-310]
> 7.00	> 6.00	> 7.00				O=C(O)[C@]1(NS(=O)(=O)c2ccc(-c3cc(C(F)(F)F)on3)s2)C[C@@H]1c1ccccc1 [Example 2-43]
> 6.00	≤ 5.00	> 6.00				O=C(O)C1(NS(=O)(=O)c2ccc(-c3ccc(Cl)cc3)s2)CC1C1CCC1 (stereo not drawn) [Example 2-58]
> 6.00	≤ 6.00	> 7.00				COC(=O)Cc1cccc(C2CC2(NS(=O)(=O)c2ccc(-c3cc(C(F)(F)F)on3)s2)C(=O)O)c1 (stereo not drawn) [Example 2-219]
> 6.00	≤ 6.00	> 7.00				Cc1cnn(-c2ccc(S(=O)(=O)N[C@@]3(C(=O)O)C[C@@H]3c3ccccc3)s2)c1 [Example 2-241]
			> 7.00	≤ 6.00	> 7.00	O=C(O)[C@@]1(NS(=O)(=O)c2ccc(-c3cc(C(F)(F)F)on3)s2)C[C@H]1c1ccc(CCO)cc1 [Example 2-301]
			≤ 6.00	≤ 6.00	≤ 5.00	CC1C(NS(=O)(=O)c2ccc(-c3cc(C(F)(F)F)on3)s2)(C(=O)O)C1(C)c1ccccc1 (stereo not drawn) [Example 2-597]
			> 7.00	≤ 6.00	> 7.00	CN1CCN(C(=O)Cc2ccc([C@@H]3C[C@]3(NS(=O)(=O)c3ccc(-c4cc(C(F)(F)F)on4)s3)C(=O)O)cc2)CC1 [Example 2-294]
			≤ 6.00	≤ 5.00	> 7.00	COc1cnn(-c2ccc(S(=O)(=O)N[C@@]3(C(=O)O)C[C@@H]3c3ccccc3)cn2)c1 [Example 2-482]
			> 7.00	> 7.00	> 7.00	CC1[C@H](c2ccccc2)[C@]1(NS(=O)(=O)c1ccc(-c2cc(C(C)(F)F)on2)s1)C(=O)O (stereo partly drawn) [Example 2-609]
> 6.00	≤ 6.00	> 7.00				COCc1cc(-c2ccc(S(=O)(=O)N[C@@]3(C(=O)O)C[C@@H]3c3ccccc3)s2)no1 [Example 2-110]
